Assay results from PubChem BioAssay (NCI).
Where “and” joins values, the source holds several entries; their conditions need not be identical. Equal entries are not always repeated.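 Dose response: 5 concentrations. Exposure: 48 h. Format: 96-well plates. Endpoint: linear interpolation; highest concentration if not reached. The concentration for 50% growth inhibition is given as GI50. TGI: concentration producing complete growth inhibition.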

What was measured:
Assay in all cases: NCI tumour cell line growth inhibition, 48 h
HOP-62 NSCLC = system: HOP-62 NSCLC
IGROV1 ovarian = system: IGROV1 ovarian
MDA-MB-435 = system: MDA-MB-435
SK-MEL-2 melanoma = system: SK-MEL-2 melanoma
SK-MEL-28 melanoma = system: SK-MEL-28 melanoma
SK-MEL-5 melanoma = system: SK-MEL-5 melanoma
SR leukemia = system: SR leukemia
SW-620 colon = system: SW-620 colon
UACC-257 melanoma = system: UACC-257 melanoma
UACC-62 melanoma = system: UACC-62 melanoma

SMILES | GI50 (HOP-62 NSCLC) | TGI (HOP-62 NSCLC) | GI50 (IGROV1 ovarian) | TGI (IGROV1 ovarian) [µM] | GI50 (MDA-MB-435) | TGI (MDA-MB-435) [µM] | GI50 (SK-MEL-2 melanoma) | TGI (SK-MEL-2 melanoma) | GI50 (SK-MEL-28 melanoma) | TGI (SK-MEL-28 melanoma) | GI50 (SK-MEL-5 melanoma) | TGI (SK-MEL-5 melanoma) | GI50 (SR leukemia) | TGI (SR leukemia) [µM] | GI50 (SW-620 colon) | TGI (SW-620 colon) | GI50 (UACC-257 melanoma) | TGI (UACC-257 melanoma) | GI50 (UACC-62 melanoma) | TGI (UACC-62 melanoma)
COc1cc(C)cc2c1OC(c1ccccc1)CC2=O (centres undefined) | > 100 µM | > 100 µM | > 100 µM | > 100 | > 100 µM | > 100 | > 100 µM | > 100 µM | > 100 µM | > 100 µM | > 100 µM | > 100 µM | > 100 µM | > 100 | > 100 µM | > 100 µM | > 100 µM | > 100 µM | > 100 µM | > 100 µM
Cn1cnc2c(F)c(Nc3ccc(Br)cc3Cl)c(C(=O)NOCCO)cc21 | 0.399 µM and 0.232 µM | > 100 µM | 0.264 µM and 1.34 µM | > 100 | 0.0709 µM and 0.0294 µM | > 100 | 0.0262 µM and < 0.0122 µM | 0.78 µM and 0.565 µM | 0.0269 µM and 0.0268 µM | > 2.81 µM and 2.52 µM | 2.4 µM and 0.95 µM | > 100 µM | > 10 µM and 5.85 µM | > 33.8 | 0.0436 µM and 0.0226 µM | > 100 µM | 0.0212 µM and < 0.0177 µM | 0.207 µM and 0.0755 µM | 0.0123 µM and 0.0212 µM | –
CCCCCC(=O)N1c2ccccc2NC2=C(C(=O)CC(c3ccc(OC)c(OC)c3)C2)C1c1ccc(C(F)(F)F)cc1 (centres undefined) | > 100 µM | > 100 µM | > 100 µM | > 100 | 50.7 µM | > 100 | > 100 µM | > 100 µM | > 100 µM | > 100 µM | 62.8 µM | > 100 µM | > 100 µM | > 100 | > 100 µM | > 100 µM | > 100 µM | > 100 µM | 97.1 µM | > 100 µM
N#Cc1nc(-c2cccc(Br)c2)cc(-c2ccc(Nc3nc(N4CCCCC4)nc(N4CCCCC4)n3)cc2)c1N | 2.64 µM | 8.76 µM | – | – | 2.35 µM | 6.64 | 2.09 µM | 4.61 µM | 1.83 µM | 3.89 µM | 1.76 µM | 3.18 µM | 1.29 µM | > 100 | 1.53 µM | 3.48 µM | 2.98 µM | 29.8 µM | 1.5 µM | 3.27 µM
O=C1C(NCCO)=C(N2CC2)C(=O)C(NCCO)=C1N1CC1 | – | 66.7 µM | – | > 100 | – | > 100 | – | > 73.9 µM | – | > 100 µM | – | > 85.5 µM | – | 51.6 | – | > 83.3 µM | – | > 100 µM | – | 99.5 µM
COc1cc(N2CCC(N(C)C)CC2)ccc1Nc1ncc(Cl)c(Nc2ccccc2P(C)(C)=O)n1 | 0.384 µM and 0.232 µM | 4.72 µM and > 10 µM | 0.687 µM and 0.181 µM | > 100 | 1.94 µM and 0.972 µM | > 87.6 | 1.14 µM and 0.728 µM | 4.16 µM and 2.99 µM | 6.44 µM and 1.31 µM | 37 µM and > 7.34 µM | 4.34 µM and 2.72 µM | 17 µM and > 6.71 µM | < 0.0113 µM and 0.0295 µM | – | 1.33 µM and 0.213 µM | > 26.5 µM and 6.65 µM | 4.01 µM and 0.61 µM | 30 µM and > 8.47 µM | 3.07 µM and 0.775 µM | 20.2 µM and > 5.16 µM
S=C(Nc1ccccc1)c1ccccn1 | 81.9 µM | > 100 µM | 42.4 µM | > 100 | 80.6 µM | > 100 | > 100 µM | > 100 µM | > 100 µM | > 100 µM | 69.2 µM | > 100 µM | 25.5 µM | > 100 | 59.4 µM | > 100 µM | > 100 µM | > 100 µM | 70.7 µM | > 100 µM
OCCNc1nc(NCCO)nc(Nc2ccc(C3=NN(c4cc(Cl)cc(Cl)c4)C(c4ccc(Cl)cc4)C3)cc2)n1 (centres undefined) | – | – | 2.48 µM | 5.68 | 1.65 µM | 3.11 | 2.13 µM | 4.57 µM | 1.61 µM | 3.02 µM | 1.81 µM | 3.37 µM | 1.45 µM | 3.31 | 2.03 µM | 4.52 µM | 1.95 µM | 3.78 µM | 1.72 µM | 3.37 µM
C[C@]12CC[C@H]3[C@@H](CCC4=CC(=O)CC[C@@H]43)[C@@H]1CC[C@@H]2OC1(O)C(=O)c2ccccc2C1=O | – | > 100 µM | – | > 100 | – | > 100 | – | > 100 µM | – | > 100 µM | – | 35 µM | – | > 100 | – | > 100 µM | – | > 100 µM | – | 33.6 µM
COc1ccc(NC2=C(Sc3nc(C)cc(C)n3)C(=O)N(Cc3ccccc3)C2=O)cc1Cl | 84.6 µM | > 160 µM | 108 µM | > 160 | 158 µM | > 160 | 138 µM | > 160 µM | > 160 µM | > 160 µM | 33.9 µM | > 160 µM | 37.5 µM | > 160 | > 160 µM | > 160 µM | > 160 µM | > 160 µM | 22.5 µM | > 160 µM
